Results: patent US20260137703A1, “2-AMINO-PYRIDO[2,3-D]PYRIMIDIN-7(8H)-ONE AND 7-AMINO-1-PYRIMIDO[4,5-D]PYRIMIDIN-2(1 H)-ONE DERIVATIVES AS EGFR INHIBITORS FOR THE TREATMENT OF CANCER” (Cancer Research Technology Limited, priority 2022, published 2026)

Tests used:
[1] = molecular target: T1, Phospho-EGFR (Tyr1068) in H1975 cells (Homo sapiens, UniProt P00533, L858R/T790M); test: HTRF pEGFR/total EGFR in H1975 cells; format: cell-based; conditions: ratio pEGFR/total EGFR, compound 3 hours
T1 construct: host or cells: H1975
T1 sequence (P00533 25-1210 T790M/L858R): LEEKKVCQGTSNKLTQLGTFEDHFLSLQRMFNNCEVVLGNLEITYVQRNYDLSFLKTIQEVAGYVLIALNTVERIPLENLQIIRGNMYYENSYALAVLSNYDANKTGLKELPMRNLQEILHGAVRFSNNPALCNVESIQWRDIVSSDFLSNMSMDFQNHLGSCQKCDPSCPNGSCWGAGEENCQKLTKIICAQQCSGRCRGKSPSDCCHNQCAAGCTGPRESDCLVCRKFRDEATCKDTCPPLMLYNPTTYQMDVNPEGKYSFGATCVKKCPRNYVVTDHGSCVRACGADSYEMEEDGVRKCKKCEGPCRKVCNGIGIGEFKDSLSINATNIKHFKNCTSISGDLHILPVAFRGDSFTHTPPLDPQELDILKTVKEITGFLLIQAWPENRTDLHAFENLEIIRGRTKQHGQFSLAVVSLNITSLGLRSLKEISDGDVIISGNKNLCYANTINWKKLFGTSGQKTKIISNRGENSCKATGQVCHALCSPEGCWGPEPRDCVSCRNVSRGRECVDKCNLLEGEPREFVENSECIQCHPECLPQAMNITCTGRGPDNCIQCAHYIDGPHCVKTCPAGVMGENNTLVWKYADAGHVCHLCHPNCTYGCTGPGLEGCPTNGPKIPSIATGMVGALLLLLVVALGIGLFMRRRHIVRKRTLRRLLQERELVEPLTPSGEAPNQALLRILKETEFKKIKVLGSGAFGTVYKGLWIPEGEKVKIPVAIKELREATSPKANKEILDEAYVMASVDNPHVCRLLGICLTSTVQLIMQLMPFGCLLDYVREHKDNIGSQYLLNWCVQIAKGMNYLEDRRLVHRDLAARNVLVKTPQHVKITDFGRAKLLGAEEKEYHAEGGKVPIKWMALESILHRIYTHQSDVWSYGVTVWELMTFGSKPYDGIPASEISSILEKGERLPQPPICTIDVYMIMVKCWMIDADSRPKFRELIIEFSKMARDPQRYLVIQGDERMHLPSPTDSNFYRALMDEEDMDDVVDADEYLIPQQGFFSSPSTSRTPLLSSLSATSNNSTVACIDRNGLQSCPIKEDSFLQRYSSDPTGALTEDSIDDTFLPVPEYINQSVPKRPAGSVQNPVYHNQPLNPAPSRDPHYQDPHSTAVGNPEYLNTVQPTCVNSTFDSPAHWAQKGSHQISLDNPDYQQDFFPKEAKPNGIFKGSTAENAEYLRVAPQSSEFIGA
Method in brief: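 Readout is the phospho-EGFR (Tyr1068) to total EGFR HTRF ratio, expressed relative to 0 μM control. Adhered H1975 cells were exposed to compound for 3 hours at 0.1% DMSO, duplicate wells, then lysed for 30 min at room temperature before two-wavelength fluorescence reading.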

[2] = molecular target: T2, Phospho-EGFR (Tyr1068) in H1975 C797S cells (CRISPR-edited EGFR C797S) (Homo sapiens, UniProt P00533, C797S/L858R/T790M); test: HTRF pEGFR/total EGFR in H1975 C797S cells; format: cell-based; conditions: ratio pEGFR/total EGFR, compound 3 hours
T2 construct: host or cells: H1975 C797S (CRISPR-edited)
T2 sequence (P00533 25-1210 T790M/C797S/L858R): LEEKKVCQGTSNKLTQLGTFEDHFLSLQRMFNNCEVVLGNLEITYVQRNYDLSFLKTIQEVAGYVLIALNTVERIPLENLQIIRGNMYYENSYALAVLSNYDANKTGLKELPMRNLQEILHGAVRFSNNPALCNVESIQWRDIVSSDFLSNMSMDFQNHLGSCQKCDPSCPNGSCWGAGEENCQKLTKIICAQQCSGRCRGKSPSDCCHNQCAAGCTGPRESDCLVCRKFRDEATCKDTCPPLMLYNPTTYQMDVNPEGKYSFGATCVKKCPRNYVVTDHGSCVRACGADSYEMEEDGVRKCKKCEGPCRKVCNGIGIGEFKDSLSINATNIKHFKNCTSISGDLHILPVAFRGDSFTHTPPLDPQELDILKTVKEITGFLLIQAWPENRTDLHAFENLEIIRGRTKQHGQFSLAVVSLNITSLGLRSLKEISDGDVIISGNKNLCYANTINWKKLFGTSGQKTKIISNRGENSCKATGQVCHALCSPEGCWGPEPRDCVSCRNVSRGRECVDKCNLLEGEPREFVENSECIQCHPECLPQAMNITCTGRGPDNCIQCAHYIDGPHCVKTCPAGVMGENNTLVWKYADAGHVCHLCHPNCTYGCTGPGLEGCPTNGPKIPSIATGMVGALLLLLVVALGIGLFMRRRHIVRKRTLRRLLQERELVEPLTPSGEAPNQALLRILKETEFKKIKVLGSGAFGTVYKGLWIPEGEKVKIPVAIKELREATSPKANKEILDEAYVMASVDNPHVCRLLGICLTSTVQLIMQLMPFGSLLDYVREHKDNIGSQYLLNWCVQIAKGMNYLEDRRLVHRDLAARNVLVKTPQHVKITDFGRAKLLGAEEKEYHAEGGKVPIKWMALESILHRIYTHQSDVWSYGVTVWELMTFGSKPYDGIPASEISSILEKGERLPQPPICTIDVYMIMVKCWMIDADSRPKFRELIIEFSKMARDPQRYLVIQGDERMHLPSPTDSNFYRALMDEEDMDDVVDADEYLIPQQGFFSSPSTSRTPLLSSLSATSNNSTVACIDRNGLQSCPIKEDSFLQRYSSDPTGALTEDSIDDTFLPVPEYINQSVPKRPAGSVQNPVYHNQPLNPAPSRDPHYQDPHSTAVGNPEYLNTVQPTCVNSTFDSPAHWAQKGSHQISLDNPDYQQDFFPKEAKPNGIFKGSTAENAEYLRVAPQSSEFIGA
Method in brief: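 Readout is the HTRF-measured Tyr1068 phospho-EGFR to total EGFR ratio, normalised to the 0 μM control as percent. Preceding this, CRISPR-edited H1975 C797S cells, plated 24 h earlier, were exposed 3 h to duplicate compound doses in medium with 0.1% DMSO, then lysed on a shaker.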

[3] = molecular target: T3, Phospho-EGFR (Tyr1068) in A431 cells (Homo sapiens, UniProt P00533); test: HTRF pEGFR/total EGFR in A431 cells with EGF stimulation; format: cell-based; conditions: ratio pEGFR/total EGFR, compound 2.5 hours then 100 ng/ml EGF 30 mins
T3 construct: endogenous in cells; host or cells: A431
T3 sequence (P00533 25-1210): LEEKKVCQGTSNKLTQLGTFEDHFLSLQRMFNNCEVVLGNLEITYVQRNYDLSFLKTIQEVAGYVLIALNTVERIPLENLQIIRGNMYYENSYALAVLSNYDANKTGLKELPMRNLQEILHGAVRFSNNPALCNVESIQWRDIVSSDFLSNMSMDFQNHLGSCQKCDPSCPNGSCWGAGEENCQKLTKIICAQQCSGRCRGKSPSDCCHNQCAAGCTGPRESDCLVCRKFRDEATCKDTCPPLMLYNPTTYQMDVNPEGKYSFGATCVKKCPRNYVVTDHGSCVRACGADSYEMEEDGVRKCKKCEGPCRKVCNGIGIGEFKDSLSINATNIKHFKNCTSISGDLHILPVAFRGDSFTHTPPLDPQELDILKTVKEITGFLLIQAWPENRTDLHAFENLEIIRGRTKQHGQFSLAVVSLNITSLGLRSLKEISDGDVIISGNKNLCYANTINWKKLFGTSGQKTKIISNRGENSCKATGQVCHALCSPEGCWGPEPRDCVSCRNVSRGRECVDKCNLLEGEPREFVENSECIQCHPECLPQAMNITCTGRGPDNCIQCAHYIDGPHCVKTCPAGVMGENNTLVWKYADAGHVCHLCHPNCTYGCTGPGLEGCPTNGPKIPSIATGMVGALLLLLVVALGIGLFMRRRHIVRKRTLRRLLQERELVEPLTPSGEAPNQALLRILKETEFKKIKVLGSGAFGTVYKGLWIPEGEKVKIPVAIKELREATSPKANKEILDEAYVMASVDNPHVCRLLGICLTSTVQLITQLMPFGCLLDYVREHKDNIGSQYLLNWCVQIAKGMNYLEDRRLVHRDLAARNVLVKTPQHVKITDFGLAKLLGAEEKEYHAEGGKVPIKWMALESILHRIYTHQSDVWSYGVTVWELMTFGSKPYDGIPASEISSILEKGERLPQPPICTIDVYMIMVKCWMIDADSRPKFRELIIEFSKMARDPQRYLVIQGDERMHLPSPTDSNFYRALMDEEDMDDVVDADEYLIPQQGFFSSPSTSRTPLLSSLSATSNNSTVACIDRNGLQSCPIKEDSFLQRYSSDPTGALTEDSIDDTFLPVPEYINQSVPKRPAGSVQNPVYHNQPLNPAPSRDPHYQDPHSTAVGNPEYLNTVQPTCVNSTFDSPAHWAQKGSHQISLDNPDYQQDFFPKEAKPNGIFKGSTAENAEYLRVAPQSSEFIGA
Method in brief: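 Values are pEGFR(Tyr1068)/total EGFR HTRF ratios (665/620 nm) given as percent of the 0 μM control. Adhered A431 cells (20,000 per well, 24 h) had 2.5 h compound pretreatment in 0.1% DMSO, then 30 min of 100 ng/ml EGF before lysis.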

[4] = molecular target: CtermHisTag-mEGFR Wild type (Homo sapiens, UniProt P00533); test: biochemical
Chain of CtermHisTag-mEGFR Wild type (P00533 whole entry): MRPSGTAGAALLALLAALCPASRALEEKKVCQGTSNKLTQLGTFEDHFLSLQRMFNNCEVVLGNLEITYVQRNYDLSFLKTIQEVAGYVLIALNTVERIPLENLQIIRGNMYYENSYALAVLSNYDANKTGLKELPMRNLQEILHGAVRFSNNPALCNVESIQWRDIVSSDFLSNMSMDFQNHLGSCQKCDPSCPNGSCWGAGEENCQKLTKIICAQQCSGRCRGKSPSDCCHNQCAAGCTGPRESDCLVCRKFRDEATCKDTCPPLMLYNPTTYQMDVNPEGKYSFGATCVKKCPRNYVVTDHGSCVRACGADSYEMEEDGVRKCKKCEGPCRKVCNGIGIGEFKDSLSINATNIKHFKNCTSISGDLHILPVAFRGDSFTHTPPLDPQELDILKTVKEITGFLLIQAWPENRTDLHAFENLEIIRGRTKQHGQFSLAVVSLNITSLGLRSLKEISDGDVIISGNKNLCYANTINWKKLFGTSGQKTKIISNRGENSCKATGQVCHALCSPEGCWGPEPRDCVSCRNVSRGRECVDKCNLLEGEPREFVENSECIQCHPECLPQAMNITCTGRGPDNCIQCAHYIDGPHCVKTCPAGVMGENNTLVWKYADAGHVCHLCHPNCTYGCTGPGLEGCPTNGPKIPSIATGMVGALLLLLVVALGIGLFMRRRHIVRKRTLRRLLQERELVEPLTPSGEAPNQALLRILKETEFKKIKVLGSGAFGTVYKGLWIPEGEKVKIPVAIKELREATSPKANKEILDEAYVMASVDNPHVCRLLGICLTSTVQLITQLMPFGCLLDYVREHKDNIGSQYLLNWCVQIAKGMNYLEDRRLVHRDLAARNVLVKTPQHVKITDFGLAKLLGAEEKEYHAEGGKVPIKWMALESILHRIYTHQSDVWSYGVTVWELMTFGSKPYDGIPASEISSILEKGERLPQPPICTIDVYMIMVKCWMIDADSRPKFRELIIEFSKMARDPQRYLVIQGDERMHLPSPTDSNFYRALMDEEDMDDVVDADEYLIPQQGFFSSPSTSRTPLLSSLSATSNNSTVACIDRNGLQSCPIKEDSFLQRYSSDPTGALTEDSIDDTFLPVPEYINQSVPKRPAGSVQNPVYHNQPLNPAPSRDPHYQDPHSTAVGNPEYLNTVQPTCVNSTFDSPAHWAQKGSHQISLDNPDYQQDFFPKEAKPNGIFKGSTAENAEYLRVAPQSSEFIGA

| Structure (SMILES) | IC50 [1] [µM] | IC50 [2] [µM] | IC50 [3] [µM] | IC50 [4] [µM] |
| --- | --- | --- | --- | --- |
| C#Cc1cc(=O)n([C@H]2CC[C@@H](NC(=O)CN(C)C)CC2)c2nc(Nc3ccccc3OC)ncc12 [Example 90, 2-(Dimethylamino)-N-[(1s,4s)-4-{5-ethynyl-2-[(2-methoxyphenyl)amino]-7-oxopyrido[2,3-d]pyrimidin-8-yl}cyclohexyl]acetamide] | 1 to 3 | > 3 | > 3 | 1 to 10 |
| C#Cc1cc(=O)n([C@H]2CC[C@@H](NC(=O)Cc3cn[nH]c3)CC2)c2nc(Nc3ccc(N4CCN(C)CC4)cc3)ncc12 [Example 91, 2-(1H-Pyrazol-4-yl)-N-[(1s,4s)-4-(5-ethynyl-2-{[4-(4-methylpiperazin-1-yl)phenyl]amino}-7-oxopyrido[2,3-d]pyrimidin-8-yl)cyclohexyl]acetamide] | 0.5 to 1 | 1 to 3 | > 3 | < 1 |
| C#Cc1cc(=O)n([C@H]2CC[C@@H](NC(=O)CCC(=O)OC)CC2)c2nc(Nc3ccc(N4CCN(C)CC4)cc3)ncc12 [Example 92, Methyl 4-(((1s,4s)-4-(5-ethynyl-2-((4-(4-methylpiperazin-1-yl)phenyl)amino)-7-oxopyrido[2,3-d]pyrimidin-8(7H)-yl)cyclohexyl)amino)-4-oxobutanoate] | > 3 | > 3 | > 3 | 1 to 10 |
| C#Cc1cc(=O)n([C@H]2CC[C@@H](NC(=O)CCC(=O)N(C)C)CC2)c2nc(Nc3ccc(N4CCN(C)CC4)cc3)ncc12 [Example 93, N,N-Dimethyl-N′-[(1s,4s)-4-(5-ethynyl-2-{[4-(4-methylpiperazin-1-yl)phenyl]amino}-7-oxopyrido[2,3-d]pyrimidin-8-yl)cyclohexyl]succinamide] | 0.5 to 1 | 1 to 3 | > 3 | 1 to 10 |
| C#Cc1cc(=O)n([C@H]2CC[C@@H](NC(=O)CC(=O)N(C)C)CC2)c2nc(Nc3ccc(N4CCN(C)CC4)cc3)ncc12 [Example 95, N,N-Dimethyl-N′-[(1s,4s)-4-(5-ethynyl-2-{[4-(4-methylpiperazin-1-yl)phenyl]amino}-7-oxopyrido[2,3-d]pyrimidin-8-yl)cyclohexyl]propanediamide] | < 0.5 | < 0.5 | > 3 | 1 to 10 |
| C#Cc1cc(=O)n([C@H]2CC[C@@H](NC(=O)CC(=O)O)CC2)c2nc(Nc3ccc(N4CCN(C)CC4)cc3)ncc12 [Example 99, 2-{[(1s,4s)-4-(5-Ethynyl-2-{[4-(4-methylpiperazin-1-yl)phenyl]amino}-7-oxopyrido[2,3-d]pyrimidin-8-yl)cyclohexyl]carbamoyl}acetic acid] | 1 to 3 | > 3 | > 3 | < 1 |
| C#Cc1cc(=O)n([C@H]2CC[C@@H](NC(=O)CN(C)C)CC2)c2nc(Nc3ccc(N4CCN(C)CC4)cc3)ncc12 [Example 100, 2-(Dimethylamino)-N-[(1s,4s)-4-(5-ethynyl-2-{[4-(4-methylpiperazin-1-yl)phenyl]amino}-7-oxopyrido[2,3-d]pyrimidin-8-yl)cyclohexyl]acetamide] | < 0.5 | < 0.5 | 1 to 3 | 1 to 10 |
| C#Cc1cc(=O)n([C@H]2CC[C@@H](N(C)C(=O)CN(C)C)CC2)c2nc(Nc3ccccc3OC)ncc12 [Example 101, 2-(Dimethylamino)-N-methyl-N-[(1s,4s)-4-{5-ethynyl-2-[(2-methoxyphenyl)amino]-7-oxopyrido[2,3-d]pyrimidin-8-yl}cyclohexyl]acetamide] | > 3 | > 3 | > 3 | > 10 |
| C#Cc1cc(=O)n(C2CCOC2)c2nc(Nc3ccc(N4CCN(C)CC4)cc3)ncc12 (stereo not drawn) [Example 105, 5-ethynyl-2-{[4-(4-methylpiperazin-1-yl)phenyl]amino}-8-(oxolan-3-yl)pyrido[2,3-d]pyrimidin-7-one] | 1 to 3 | 1 to 3 | > 3 | > 10 |
| C#Cc1cc(=O)n(C2CCN(C)C2)c2nc(Nc3ccc(N4CCN(C)CC4)cc3)ncc12 (stereo not drawn) [Example 107, 5-ethynyl-2-{[4-(4-methylpiperazin-1-yl)phenyl]amino}-8-(1-methylpyrrolidin-3-yl)pyrido[2,3-d]pyrimidin-7-one] | > 3 | 1 to 3 | > 3 | > 10 |
| C#Cc1cc(=O)n(C2CNC(=O)C2)c2nc(Nc3ccc(N4CCN(C)CC4)cc3)ncc12 (stereo not drawn) [Example 108, 4-(5-ethynyl-2-{[4-(4-methylpiperazin-1-yl)phenyl]amino}-7-oxopyrido[2,3-d]pyrimidin-8-yl)pyrrolidin-2-one] | > 3 | > 3 | > 3 | > 10 |
| C#Cc1c(C)c(=O)n(Cc2ccn[nH]2)c2nc(Nc3ccc(N4CCN(C)CC4)cc3)ncc12 [Example 109, 5-ethynyl-6-methyl-2-{[4-(4-methylpiperazin-1-yl)phenyl]amino}-8-(2H-pyrazol-3-ylmethyl)pyrido[2,3-d]pyrimidin-7-one] | 1 to 3 | 1 to 3 | 1 to 3 | 1 to 10 |

Now from value to molecule:

| IC50 [1] [µM] | IC50 [2] [µM] | IC50 [3] [µM] | IC50 [4] [µM] | Structure (SMILES) |
| --- | --- | --- | --- | --- |
| 0.5 to 1 | 0.5 to 1 | > 3 | 1 to 10 | C#Cc1cc(=O)n([C@H]2CC[C@@H](NC(=O)CC(=O)NC)CC2)c2nc(Nc3ccc(N4CCN(C)CC4)cc3)ncc12 [Example 94, N-Methyl-N′-[(1s,4s)-4-(5-ethynyl-2-{[4-(4-methylpiperazin-1-yl)phenyl]amino}-7-oxopyrido[2,3-d]pyrimidin-8-yl)cyclohexyl]propanediamide] |
| 1 to 3 | > 3 | > 3 | < 1 | C#Cc1cc(=O)n([C@H]2CC[C@@H](NC(=O)CCN(C)C)CC2)c2nc(Nc3ccc(N4CCN(C)CC4)cc3)ncc12 [Example 96, 3-(Dimethylamino)-N-[(1s,4s)-4-(5-ethynyl-2-{[4-(4-methylpiperazin-1-yl)phenyl]amino}-7-oxopyrido[2,3-d]pyrimidin-8-yl)cyclohexyl]propanamide] |
| 1 to 3 | 1 to 3 | > 3 | > 10 | C#Cc1cc(=O)n([C@H]2CC[C@@H](NC(=O)CCCN(C)C)CC2)c2nc(Nc3ccc(N4CCN(C)CC4)cc3)ncc12 [Example 97, 4-(Dimethylamino)-N-[(1s,4s)-4-(5-ethynyl-2-{[4-(4-methylpiperazin-1-yl)phenyl]amino}-7-oxopyrido[2,3-d]pyrimidin-8-yl)cyclohexyl]butanamide] |
| > 3 | > 3 | > 3 | 1 to 10 | C#Cc1cc(=O)n([C@H]2CC[C@@H](NC(=O)CCC(=O)NC)CC2)c2nc(Nc3ccc(N4CCN(C)CC4)cc3)ncc12 [Example 98, N-Methyl-N′-[(1s,4s)-4-(5-ethynyl-2-{[4-(4-methylpiperazin-1-yl)phenyl]amino}-7-oxopyrido[2,3-d]pyrimidin-8-yl)cyclohexyl]succinamide] |
| 1 to 3 | 1 to 3 | 1 to 3 | 1 to 10 | C#Cc1c(C)c(=O)n([C@H]2CC[C@H](NC(C)=O)CC2)c2nc(Nc3ccc(N4CCN(C)CC4)cc3)ncc12 [Example 102, N-[(1r,4r)-4-(5-Ethynyl-6-methyl-2-{[4-(4-methylpiperazin-1-yl)phenyl]amino}-7-oxopyrido[2,3-d]pyrimidin-8-yl)cyclohexyl]acetamide] |
| 1 to 3 | 1 to 3 | 1 to 3 | 1 to 10 | C#Cc1c(C)c(=O)n([C@H]2CC[C@@H](NC(C)=O)CC2)c2nc(Nc3ccc(N4CCN(C)CC4)cc3)ncc12 [Example 103, N-[(1s,4s)-4-(5-ethynyl-6-methyl-2-{[4-(4-methylpiperazin-1-yl)phenyl]amino}-7-oxopyrido[2,3-d]pyrimidin-8-yl)cyclohexyl]acetamide] |
| < 0.5 | 0.5 to 1 | > 3 | > 10 | C#Cc1cc(=O)n(C2CCNC2=O)c2nc(Nc3ccc(N4CCN(C)CC4)cc3)ncc12 (stereo not drawn) [Example 104, 3-(5-ethynyl-2-{[4-(4-methylpiperazin-1-yl)phenyl]amino}-7-oxopyrido[2,3-d]pyrimidin-8-yl)pyrrolidin-2-one] |
| 1 to 3 | 1 to 3 | > 3 | > 10 | C#Cc1cc(=O)n(C2CCNC2)c2nc(Nc3ccc(N4CCN(C)CC4)cc3)ncc12 (stereo not drawn) [Example 106, 5-ethynyl-2-{[4-(4-methylpiperazin-1-yl)phenyl]amino}-8-(pyrrolidin-3-yl)pyrido[2,3-]pyrimidin-7-one] |
| 0.5 to 1 | 1 to 3 | 1 to 3 | < 1 | C#Cc1c(C)c(=O)n(Cc2ccn(C)n2)c2nc(Nc3ccc(N4CCN(C)CC4)cc3)ncc12 [Example 110, 5-ethynyl-6-methyl-2-{[4-(4-methylpiperazin-1-yl)phenyl]amino}-8-[(1-methylpyrazol-3-yl)methyl]pyrido[2,3-d]pyrimidin-7-one] |
